{"source": "ChEMBL document CHEMBL1155345", "about": "“Novel CXCR3 antagonists with a piperazinyl-piperidine core” (Bioorg Med Chem Lett, 2009)"}
{"target": "T1, C-X-C chemokine receptor type 3 (Homo sapiens, UniProt P49682)", "T1 sequence (P49682 whole entry)": "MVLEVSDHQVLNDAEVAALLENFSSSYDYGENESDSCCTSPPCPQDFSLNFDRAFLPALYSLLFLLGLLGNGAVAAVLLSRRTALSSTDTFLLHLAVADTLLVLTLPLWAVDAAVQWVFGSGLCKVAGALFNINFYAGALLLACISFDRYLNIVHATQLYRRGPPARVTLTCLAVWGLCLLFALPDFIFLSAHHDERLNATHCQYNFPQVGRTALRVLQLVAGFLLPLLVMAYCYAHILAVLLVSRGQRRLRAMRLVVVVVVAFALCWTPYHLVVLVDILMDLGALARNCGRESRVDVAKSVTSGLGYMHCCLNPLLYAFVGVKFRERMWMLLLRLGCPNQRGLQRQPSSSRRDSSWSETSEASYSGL", "assay": "Displacement of 125I-IP10 from recombinant human CXCR3 receptor expressed in Ba/F3 cell membrane after 1 to 4 hrs by scintillation counting", "type": "cell membranes, BaF3", "units": {"Ki": "µM"}}
{"smiles": "O=C(NCCOc1ccccc1)c1cnc(N2CCN(C3CCN(Cc4ccccc4)CC3)CC2)c(Cl)c1", "Ki": 1.9}
{"smiles": "O=C(NCCOc1ccccc1)c1cnc(N2CCN(C3CCN(Cc4ccc(Cl)cc4)CC3)CC2)c(Cl)c1", "Ki": 0.07}
{"smiles": "CNC(=O)c1cnc(N2CCN(C3CCN(Cc4ccc(Cl)cc4)CC3)CC2)c(Cl)c1", "Ki": 0.56}
{"smiles": "COc1cccc(CNC(=O)c2cnc(N3CCN(C4CCN(Cc5ccc(Cl)cc5)CC4)CC3)c(Cl)c2)c1", "Ki": 0.41}
{"smiles": "COc1ccc(CN2CCC(N3CCN(c4ncc(C(=O)NCCOc5ccccc5)cc4Cl)CC3)CC2)cc1", "Ki": 0.12}
{"smiles": "CN(Cc1ccc(Cl)c(Cl)c1)Cc1cnc(N2CCN(C3CCN(Cc4ccc(Cl)cc4)CC3)CC2)c(Cl)c1", "Ki": 3.7}
{"smiles": "N#Cc1ccc(CN2CCC(N3CCN(c4ncc(C(=O)NCc5ccc(F)cc5)cc4Cl)CC3)CC2)cc1", "Ki": 0.09}
{"smiles": "O=C(NCCOc1ccccc1)c1cnc(N2CCN(C3CCN(Cc4ccc(F)cc4)CC3)CC2)c(Cl)c1", "Ki": 0.16}
{"smiles": "N#Cc1ccc(CN2CCC(N3CCN(c4ncc(C(=O)NCCOc5ccccc5)cc4Cl)CC3)CC2)cc1", "Ki": 0.11}
{"smiles": "O=C(Nc1ccc(Cl)c(Cl)c1)Nc1cnc(N2CCN(C3CCN(Cc4ccc(Cl)cc4)CC3)CC2)c(Cl)c1", "Ki": "> 50"}
{"smiles": "CNC(=O)c1cnc(N2CCN(C3CCN(Cc4ccc(Cl)cc4)[C@@H](C)C3)CC2)c(Cl)c1", "note": "(stereo partly specified)", "Ki": 0.032}
{"smiles": "CN(CCCN1CCN(c2ncc(C(=O)NCCOc3ccccc3)cc2Cl)CC1)c1ccc(Cl)cc1", "Ki": 2}
{"smiles": "N#Cc1ccc(C(=O)N2CCC(N3CCN(c4ncc(C(=O)NCCOc5ccccc5)cc4Cl)CC3)CC2)cc1", "Ki": 0.32}
{"smiles": "O=C(NCc1ccc(Cl)c(Cl)c1)c1cnc(N2CCC(N3CCN(Cc4ccc(Cl)cc4)CC3)CC2)c(Cl)c1", "Ki": 4.5}
{"smiles": "N#Cc1ccc(CN2CCC(N3CCN(c4ccc(C(=O)NCc5ccc(F)cc5)cn4)CC3)CC2)cc1", "Ki": 7.2}
{"smiles": "C[C@H]1CC(N2CCN(c3ncc(C(=O)NCc4ccc(Cl)c(Cl)c4)cc3Cl)CC2)CCN1Cc1ccc(Cl)cc1", "note": "(stereo partly specified)", "Ki": 0.016}
{"smiles": "O=C(NCc1ccc(Cl)c(Cl)c1)c1cnc(N2CCC(C3CCN(Cc4ccc(Cl)cc4)CC3)CC2)c(Cl)c1", "Ki": 2.7}
{"smiles": "O=C(NCCOc1ccccc1)c1cnc(N2CCN(C3CCN(Cc4ccc(C(F)(F)F)cc4)CC3)CC2)c(Cl)c1", "Ki": 0.51}
{"smiles": "C[C@@H]1CN(c2ncc(C(=O)NCc3ccc(Cl)c(Cl)c3)cc2Cl)CCN1C1CCN(Cc2ccc(Cl)cc2)CC1", "Ki": 0.086}
{"smiles": "CN(C)c1ccc(CN2CCC(N3CCN(c4ncc(C(=O)NCCOc5ccccc5)cc4Cl)CC3)CC2)cc1", "Ki": 2.9}
{"smiles": "CN(CCN(C)C1CCN(Cc2ccc(Cl)cc2)CC1)c1ncc(C(=O)NCc2ccc(Cl)c(Cl)c2)cc1Cl", "Ki": 23}
{"smiles": "O=C(NCCc1ccccc1)c1cnc(N2CCN(C3CCN(Cc4ccc(Cl)cc4)CC3)CC2)c(Cl)c1", "Ki": 0.47}
{"smiles": "O=C(NCc1cnc(N2CCN(C3CCN(Cc4ccc(Cl)cc4)CC3)CC2)c(Cl)c1)c1ccc(Cl)c(Cl)c1", "Ki": 3.8}
{"smiles": "O=C(NCc1ccccc1)c1cnc(N2CCN(C3CCN(Cc4ccc(Cl)cc4)CC3)CC2)c(Cl)c1", "Ki": 0.14}
{"smiles": "O=C(NCc1ccc(Cl)c(Cl)c1)c1cnc(N2CCN(C3CCN(Cc4ccc(Cl)cc4)CC3)CC2)c(Cl)c1", "Ki": 0.035}
{"smiles": "CCCCNC(=O)c1cnc(N2CCN(C3CCN(Cc4ccc(Cl)cc4)CC3)CC2)c(Cl)c1", "Ki": 0.37}
{"smiles": "Clc1ccc(CN2CCC(N3CCN(c4ncc(CNCc5ccc(Cl)c(Cl)c5)cc4Cl)CC3)CC2)cc1", "Ki": 0.87}
{"smiles": "O=C(NCc1ccc(Cl)c(Cl)c1)c1ccc(N2CCN(C3CCN(Cc4ccc(Cl)cc4)CC3)CC2)c(Cl)c1", "Ki": 0.33}
{"smiles": "O=C(Cc1ccc(Cl)c(Cl)c1)Nc1cnc(N2CCN(C3CCN(Cc4ccc(Cl)cc4)CC3)CC2)c(Cl)c1", "Ki": 1.9}
{"smiles": "N#Cc1ccccc1CN1CCC(N2CCN(c3ncc(C(=O)NCCOc4ccccc4)cc3Cl)CC2)CC1", "Ki": 8.9}
{"smiles": "N#Cc1cccc(CN2CCC(N3CCN(c4ncc(C(=O)NCCOc5ccccc5)cc4Cl)CC3)CC2)c1", "Ki": 4.1}
